# Results: patent US20240390434A1, “PROBIOTIC ENHANCERS AND USES THEREOF” (Blis Technologies Limited, priority 2021, published 2024)
# System: indicator strains
# Assay: Deferred antagonism assay, producer S. salivarius K12: total strains inhibited
# Type: cell-based
# Details: K12
# Description: 1-2 producer strain colonies were transferred from a stock plate into 900 μL of suspension solution using a fresh cotton swab. Following this, suspensions were vortexed, and a sample was inoculated onto solid culture media using a fresh cotton swab. The inoculation was a streak that runs diametrically across the agar plate in a 1.5 cm wide strip. The plate was then incubated. Following incubation all visible colonies were removed by swabbing them from the agar surface. The plates were then treated with chloroform by dispensing 2 ml of chloroform onto 4 cm×4 cm piece of cloth and sealing the inverted agar plate on top for 30 minutes. The plates were then air dried for 30 minutes following chloroforming. 1-2 indicator strain colonies were then transferred from a stock plate into complementary suspension solution. The suspensions were then vortexed, and a sample was inoculated onto the same agar surface. These samples were streaked in a perpendicular direction to the initial producer streak.
# Each indicator streak was prepared with fresh a suspension containing cells from a corresponding stock plate containing the indicator strain of interest. Indicator strains suspension samples were transferred using a fresh cotton swab. Results were measured by qualitatively reviewing the subsequent (if any) sizes of the zones of inhibition (ZOI) of indicator strain colony growth. A positive result is when there is a distinctive reduction or complete inhibition of indicator colony growth on the culture medium.
# CABCa agar plates containing various concentrations of saccharide were prepared according to the methods described in Method 1. Producer strains were transferred from stock agar plates into 900 μL THB using a fresh cotton swab. A plastic spread plater was cut to approximately 1.2 cm width and then dipped into ethanol and left to air dry to ensure sterility. A 100 μL sample of the producer strain suspension was then dispensed onto the agar surface in a straight line running diametrically across the agar surface in (approximately) 20 μL spots. The spots were spaced approximately 1.5 cm apart from each other. The plastic spreader was then used to evenly distribute the spots across the agar surface in a 1.5 cm wide strip. This step was taken to ensure an even producer streak was inoculated onto the agar surface and provided an approximate measure of the initial inoculum concentration. Separate plastic spreaders were used for samples containing different producer strains. The samples were left to soak into the agar surface until there was no visible liquid remaining on the agar surface (approximately 20 minutes). Following producer streak preparations, the deferred antagonism assay protocol was followed as per Method 2. Results were recorded by measuring the size of the zone of inhibition (ZOI) in mm.
# A dose response assay was carried out according to method 3 above, except a 1.2 cm streak was used. For the individual saccharide testing the pH of the producer streak was adjusted after the growth of producer to change the acidic conditions.
# A deferred antagonism assay was conducted using K12 or M18 raw ingredient suspended in Todd Hewitt broth (THB). This was spread as a 1.2 cm streak containing approximately 1-2×10^6 cfu down the middle of a CABCa control or CABCa galactose supplemented test plate. After 18 hrs growth at 37° C. with 5% CO2, bacterial growth was removed, and the pH of the agar in the initial streak was measured and adjusted to a pH of 6.5-7.5 using 0.5M sodium carbonate pH11 before sterilizing the agar surface using chloroform vapor. Bacterial test strains were suspended in i-THB before being swabbed across the plates perpendicular to the initial streak. Plates were incubated for a further 18 hrs incubation at 37° C. with 5% CO2 before measuring (mm) any zones of inhibition for each test strain, […]
compound,measurement,setting,value
"O=C(CO)[C@@H](O)[C@H](O)[C@H](O)CO [Fructose, D-(−) Fructose, reference compound]",Total strains inhibited,saccharide 3.3% w/v,0/3
same,Total strains inhibited,saccharide range 0.83%-3.3% w/v,0/3
